Assay results reported in patent US10377770B2 (Novartis AG, priority 2015, dated 2019).

Molecular target: C-Raf FL (full length CRAF with Y340E and Y341E activating mutations, co-expressed with h14-3-3 zeta) (Homo sapiens (Human), UniProt P04049, Y340E/Y341E)
Test: In vitro Raf activity determination, AlphaScreen p-MEK readout, c-Raf (C-Raf FL)
Assay type: biochemical
Conditions: c-Raf approximately 4 nM, ATP 1 μM, pre-incubation 60 minutes, reaction 1 hour
Method in brief: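 Phosphorylation of kinase-dead biotinylated MEK1 (~10 nM) by C-Raf FL (~4 nM) read by AlphaScreen luminescence with anti-phospho-MEK1/2 after EDTA stop. ATP was 1 μM, with a 1 h reaction at room temperature. Compounds were pre-incubated with enzyme and substrate for 60 min in Tris/MgCl2 buffer, pH 7.5.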

C-Raf FL (full length CRAF with Y340E and Y341E activating mutations, co-expressed with h14-3-3 zeta), sequence (P04049 whole entry Y340E/Y341E): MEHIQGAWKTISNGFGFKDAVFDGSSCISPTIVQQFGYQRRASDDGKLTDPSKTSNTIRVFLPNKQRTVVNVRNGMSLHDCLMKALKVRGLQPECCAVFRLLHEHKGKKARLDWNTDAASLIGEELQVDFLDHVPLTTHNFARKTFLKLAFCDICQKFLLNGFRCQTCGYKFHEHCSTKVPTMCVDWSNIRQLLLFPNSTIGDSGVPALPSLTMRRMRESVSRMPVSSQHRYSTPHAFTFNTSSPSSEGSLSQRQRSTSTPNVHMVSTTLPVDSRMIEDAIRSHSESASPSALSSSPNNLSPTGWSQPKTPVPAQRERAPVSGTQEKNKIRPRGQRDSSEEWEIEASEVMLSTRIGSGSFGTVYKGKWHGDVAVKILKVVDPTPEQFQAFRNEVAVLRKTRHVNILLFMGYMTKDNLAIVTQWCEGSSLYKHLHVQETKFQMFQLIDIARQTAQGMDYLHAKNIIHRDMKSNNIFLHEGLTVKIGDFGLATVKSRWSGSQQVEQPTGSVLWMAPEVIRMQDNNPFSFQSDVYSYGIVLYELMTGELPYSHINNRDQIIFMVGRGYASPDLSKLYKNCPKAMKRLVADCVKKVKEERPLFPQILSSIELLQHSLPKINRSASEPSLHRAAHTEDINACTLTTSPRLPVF
C-Raf FL (full length CRAF with Y340E and Y341E activating mutations, co-expressed with h14-3-3 zeta), sequence (P63104 whole entry partner): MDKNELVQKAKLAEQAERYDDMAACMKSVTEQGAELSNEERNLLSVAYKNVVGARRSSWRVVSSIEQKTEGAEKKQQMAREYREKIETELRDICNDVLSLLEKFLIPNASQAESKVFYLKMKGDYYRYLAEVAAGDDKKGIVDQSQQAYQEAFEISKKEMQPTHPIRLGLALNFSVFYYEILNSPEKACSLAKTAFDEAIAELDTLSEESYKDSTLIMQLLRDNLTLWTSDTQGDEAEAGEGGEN

SMILES	IC50 [nM]
CCN1C(=O)[C@@H]2[C@H]3COC[C@H]3[C@@H]2c2cc(-c3cc(NC(=O)c4ccnc(C(F)(F)F)c4F)ccc3C)cnc21 [Example 273, N-(3-((6aS, 6bS, 9aS, 9bS)-5-ethyl-6-oxo-5,6,6a,6b,7,9,9a,9b-octahydrofuro[3′,4′: 3,4]cyclobuta[1,2-c][1,8]naphthyridin-2-yl)-4-methylphenyl)-3-fluoro-2-(trifluoromethyl) isonicotinamide]	0.2
CCN1C(=O)[C@@H]2[C@H]3COC[C@H]3[C@@H]2c2cc(-c3cc(NC(=O)c4cncc(C(F)(F)F)c4)ccc3C)cnc21 [Example 274, N-(3-((6aS, 6bS, 9aS, 9bS)-5-ethyl-6-oxo-5,6,6a,6b,7,9,9a,9b-octahydrofuro[3′,4′: 3,4]cyclobuta[1,2-c][1,8]naphthyridin-2-yl)-4-methylphenyl)-5-(trifluoromethyl) nicotinamide]	0.5
CCN1C(=O)[C@H]2[C@@H]3COC[C@@H]3[C@H]2c2cc(-c3cc(NC(=O)c4cccc(C(F)(F)F)c4)cnc3C)cnc21 [Example 275, N-(5-((6aR, 6bR, 9aR, 9bR)-5-ethyl-6-oxo-5,6,6a,6b,7,9,9a,9b-octahydrofuro[3′,4′: 3,4]cyclobuta[1,2-c][1,8]naphthyridin-2-yl)-6-methylpyridin-3-yl)-3-(trifluoromethyl) benzamide]	0.8
CCN1C(=O)[C@H]2[C@@H]3COC[C@@H]3[C@H]2c2cc(-c3cc(NC(=O)c4ccnc(C(F)(F)F)c4F)ccc3C)cnc21 [Example 276, N-(3-((6aR, 6bR, 9aR, 9bR)-5-ethyl-6-oxo-5,6,6a,6b,7,9,9a,9b-octahydrofuro[3′,4′: 3,4]cyclobuta[1,2-c][1,8]naphthyridin-2-yl)-4-methylphenyl)-3-fluoro-2-(trifluoromethyl) isonicotinamide]	0.5
CCN1C(=O)[C@H]2[C@@H]3COC[C@@H]3[C@H]2c2cc(-c3cc(NC(=O)c4cncc(C(F)(F)F)c4)ccc3C)cnc21 [Example 277, N-(3-((6aR, 6bR, 9aR, 9bR)-5-ethyl-6-oxo-5,6,6a,6b,7,9,9a,9b-octahydrofuro[3′,4′: 3,4]cyclobuta[1,2-c][1,8]naphthyridin-2-yl)-4-methylphenyl)-5-(trifluoromethyl) nicotinamide]	0.1
Cc1ccc(NC(=O)c2ccnc(C(F)(F)F)c2)cc1-c1cnc2c(c1)C1C3COCC3C1C(=O)N2CCO (stereo not drawn) [Example 278, N-(3-(5-(2-hydroxyethyl)-6-oxo-5,6,6a,6b,7,9,9a,9b-octahydrofuro[3′,4′: 3,4]cyclobuta[1,2-c][1,8]naphthyridin 2-yl)-4-methylphenyl)-2-(trifluoromethyl) isonicotinamide]	0.3
Cc1ccc(NC(=O)c2ccnc(C(C)(F)F)c2)cc1-c1cnc2c(c1)C1C3COCC3C1C(=O)N2CCO (stereo not drawn) [Example 279, 2-(1,1-difluoroethyl)-N-(3-(5-(2-hydroxyethyl)-6-oxo-5,6,6a,6b,7,9,9a,9b-octahydrofuro[3′,4′: 3,4]cyclobuta[1,2-c][1,8]naphthyridin-2-yl)-4-methylphenyl) isonicotinamide]	0.4
Cc1ccc(NC(=O)c2ccnc(C(F)(F)F)c2F)cc1-c1cnc2c(c1)C1C3COCC3C1C(=O)N2CCO (stereo not drawn) [Example 280, 3-fluoro-N-(3-(5-(2-hydroxyethyl)-6-oxo-5,6,6a,6b,7,9,9a,9b-octahydrofuro[3′,4′: 3,4]cyclobuta[1,2-c][1,8]naphthyridin-2-yl)-4-methylphenyl)-2-(trifluoromethyl) isonicotinamide]	0.5
Cc1ccc(NC(=O)c2ccnc(C(F)(F)F)c2)cc1-c1cnc2c(c1)C1C3COCC3C1C(=O)N2CCO (stereo not drawn) [Example 281, N-(3-(5-(2-hydroxyethyl)-6-oxo-5,6,6a,6b,7,9,9a,9b-octahydrofuro[3′,4′: 3,4]cyclobuta[1,2-c][1,8]naphthyridin-2-yl)--4-methylphenyl)-2-(trifluoromethyl) isonicotinamide]	0.2
Cc1ccc(NC(=O)c2ccnc(C(F)(F)F)c2F)cc1-c1cnc2c(c1)C1C3COCC3C1C(=O)N2CCO (stereo not drawn) [Example 283, 3-fluoro-N-(3-(5-(2-hydroxyethyl)-6-oxo-5,6,6a,6b,7,9,9a,9b-octahydrofuro[3′,4′: 3,4]cyclobuta[1,2-c][1,8]naphthyridin-2-yl)-4-methylphenyl)-2-(trifluoromethyl)-2-isonicotinamide]	0.2
Cc1ncc(NC(=O)c2cccc(C(F)(F)F)c2)cc1-c1cnc2c(c1)C1CCOCCC1C(=O)N2CCO (stereo not drawn) [Example 285, N-(5-(7-(2-hydroxyethyl)-6-oxo-1,2,4,5,5a,6,7,11b-octahydrooxepino [4,5-c][1,8]naphthyridin-10-yl)-6-methylpyridin-3-yl)-3-(trifluoromethyl) benzamide]	0.1
Cc1ccc(NC(=O)c2ccnc(C(C)(F)F)c2)cc1-c1cnc2c(c1)[C@@H]1CCOC[C@H]1C(=O)N2CC(C)(C)O [Example 287, 2-(1,1-difluoroethyl)-N-(3-((4aS,10bR)-6-(2-hydroxy-2-methylpropyl)-5-oxo-2,4,4a,5,6,10b-hexahydro-1H-pyrano[3,4-c][1,8]naphthyridin-9-yl)-4-methylphenyl) isonicotinamide]	0.2
Cc1ccc(NC(=O)c2ccnc(C(F)(F)F)c2)cc1-c1cnc2c(c1)N1CCOC[C@H]1CC(=O)N2CC(C)(C)O [Example 288, (R)-N-(3-(7-(2-hydroxy-2-methylpropyl)-6-oxo-2,4,4a,5,6,7-hexahydro-1H-[1,4]oxazino[4,3-d]pyrido[2,3-b][1,4]diazepin-10-yl)-4-methylphenyl)-2-(trifluoromethyl) isonicotinamide]	0.9
Cc1ccc(NC(=O)c2ccnc(C(C)(F)F)c2)cc1-c1cnc2c(c1)N1CCOC[C@H]1CC(=O)N2CC(C)(C)O [Example 289, (R)-2-(1,1-difluoroethyl)-N-(3-(7-(2-hydroxy-2-methylpropyl)-6-oxo-2,4,4a,5,6,7-hexahydro-1H-[1,4]oxazino[4,3-d]pyrido[2,3-b][1,4]diazepin-10-yl)-4-methylphenyl) isonicotinamide]	0.9
Cc1ccc(NC(=O)c2ccnc(C(F)(F)F)c2F)cc1-c1cnc2c(c1)N1CCOC[C@H]1CC(=O)N2CC(C)(C)O [Example 290, (R)-3-fluoro-N-(3-(7-(2-hydroxy-2-methylpropyl)-6-oxo-2,4,4a,5,6,7-hexahydro-1H-[1,4]oxazino[4,3-d]pyrido[2,3-b][1,4]diazepin-10-yl)-4-methylphenyl)-2-(trifluoromethyl) isonicotinamide]	1
CCN1C[C@@H]2COCC[C@H]2c2cc(-c3cc(NC(=O)c4ccnc(C(F)(F)F)c4)ccc3C)cnc21 [Example 291, N-(3-((4aR, 10bR)-6-ethyl-2,4,4a,5,6,10b-hexahydro-1H-pyrano[3,4-c][1,8]naphthyridin-9-yl)-4-methylpheny)-2-(trifluoromethyl) isonicotinamide]	0.1
CCN1C[C@@H]2COCC[C@H]2c2cc(-c3cc(NC(=O)c4ccnc(C(C)(F)F)c4)ccc3C)cnc21 [Example 292, 2-(1,1-difluoroethyl)-N-(3-((4aR, 10bR)-6-ethyl-2,4,4a,5,6,10b-hexahydro-1H-pyrano[3,4-c][1,8]naphthyridin-9-yl)-4-methylphenyl) isonicotinamide]	0.1
CCN1C[C@@H]2COCC[C@H]2c2cc(-c3cc(NC(=O)c4ccnc(C(F)(F)F)c4F)ccc3C)cnc21 [Example 293, N-(3-((4aR, 10bR)-6-ethyl-2,4,4a,5,6,10b-hexahydro-1H-pyrano[3,4-c][1,8]naphthyridin-9-yl)-4-methylphenyl)-3-fluoro-2-(trifluoromethyl) isonicotinamide]	0.1
CCN1C[C@@H]2COCC[C@H]2c2cc(-c3cc(NC(=O)c4cccc(C(F)(F)F)c4F)cnc3C)cnc21 [Example 294, N-(5-((4aR, 10bR)-6-ethyl-2,4,4a,5,6,10b-hexahydro-1H-pyrano[3,4-c][1,8]naphthyridin-9-yl)-6-methylpyridin-3-yl)-2-fluoro-3-(trifluoromethyl) benzamide]	0.1
CCN1C[C@@H]2COCC[C@H]2c2cc(-c3cc(NC(=O)c4cccc(C(F)(F)F)c4)cnc3C)cnc21 [Example 295, N-(5-((4aR, 10bR)-6-ethyl-2,4,4a,5,6,10b-hexahydro-1H-pyrano[3,4-c][1,8]naphthyridin-9-yl)-6-methylpyridin-3-yl)-3-(trifluoromethyl) benzamide]	0.1
CCN1C(=O)OC2COCCC2c2cc(-c3cc(NC(=O)c4cccc(C(F)(F)F)c4)cnc3C)cnc21 [Example 296, N-(5-((4aS,11bR- cis)-7-ethyl-6-oxo-2,4,4a,6,7,11b-hexahydro-1H-pyrano[4,3-f]pyrido[2,3-d][1,3]oxazepin-10-yl)-6-methylpyridin-3-yl)-3-(trifluoromethyl) benzamide]	1.8
CCN1C(=O)OC2COCCC2c2cc(-c3cc(NC(=O)c4ccnc(C(F)(F)F)c4)ccc3C)cnc21 [Example 297, N-(3-((4aS,11bR- cis)7-ethyl-6-oxo-2,4,4a,6,7,11b-hexahydro-1H-pyrano[4,3-f]pyrido[2,3-d][1,3]oxazepin-10-yl)-4-methylphenyl)-2-(trifluoromethyl) isonicotinamide]	0.2
CCN1C(=O)OC2COCCC2c2cc(-c3cc(NC(=O)c4cccc(C(F)(F)F)c4)cnc3C)cnc21 [Example 298, N-(5-((4aS,11bR- cis)-7-ethyl-6-oxo-2,4,4a,6,7,11b-hexahydro-1H-pyrano[4,3-f]pyrido[2,3-d][1,3]oxazepin-10-yl)-6-methylpyridin-3-yl)-3-(trifluoromethyl) benzamide]	0.3
CCN1C(=O)OC2COCCC2c2cc(-c3cc(NC(=O)c4ccnc(C(F)(F)F)c4F)ccc3C)cnc21 [Example 299, N-(3-((4aS,11bR- cis)-7-ethyl-6-oxo-2,4,4a,6,7,11b-hexahydro-1H-pyrano[4,3-f]pyrido[2,3-d][1,3]oxazepin-10-yl)-4-methylphenyl)-3-fluoro-2-(trifluoromethyl) isonicotinamide]	0.1
